Assay results published in patent US20250313530A1, “SMALL MOLECULE INHIBITORS OF INTERLEUKIN-4 AND USES THEREOF” (Trustees of Boston University, priority 2024, published 2025).
Where “and” joins values, the source holds several entries; their conditions need not be identical. Equal entries are not always repeated. Entries after “also recorded” stand apart in the source; their conditions may differ. Where two headings read alike, the source gives them in different places. Blank lines part the entries; values can stand above or below the compound they belong to.

Tests used:
IL-4 [1] = biological target: T1, IL-4 (Homo sapiens, UniProt P05112); test: HEK-Blue IL-4/IL-13 reporter assay, IL-4 inhibition; assay type: cell-based; settings: for inhibition at 10 µM: HEK-Blue; for inhibition at 10 µM / % Inhibition: IL-4, HEK Blue IL-4/IL-13 reporter assay, 10 μM; for EC50: dose response, IL-4 inhibition; for Hill coefficient: fit of dose response in HEK Blue IL-4/IL-13 reporter assay
T1 construct: purchased Acros Biosystems IL4-H4218; host or cells: HEK-293
T1 sequence (P05112 25-153): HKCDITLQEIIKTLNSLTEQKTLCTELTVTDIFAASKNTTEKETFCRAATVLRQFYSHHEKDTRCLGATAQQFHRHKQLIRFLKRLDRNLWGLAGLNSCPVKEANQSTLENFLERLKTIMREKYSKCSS
Procedure: HEK-Blue IL-4/IL-13 Inhibition assay. HEK-Blue IL-4/IL-13 reporter cell lines were purchased from Invivogen and cultured in DMEM with 10% Heat Inactivated Fetal Bovine Serum (FBS), 100 U/ml-100 μg/ml Pen-Strep, 10 μg/ml blasticidin, 100 μg/ml Normocin and 100 μg/ml Zeocin. Cells were tested for secreted embryonic alkaline phosphatase (SEAP) production induced by IL-4 alone prior to small molecule screening.
22.5 μl of small molecule in DMEM 4% DMSO was added to 22.5 μl of 1 ng/ml IL-4 in DMEM in a non-binding 96-well reaction plate for 30 minutes at room temperature. The reaction plate was further incubated for 30-60 min at 37° C. HEK-Blue IL-4/IL-13 reporter cell line was used between passages 11-17. […] Measurements were done in triplicate. The plate was incubated for ˜22-24 hours at 37° C./5% CO2. Quanti-Blue dye was prepared as per the manufacturer's recommendation and 160 μl was dispensed in each well of a 96-well plate (avoid edges to avoid evaporation), 40 μl of cell supernatant was added to the same plate and incubated for 3 hours at 37° C./5% CO2. Optical density was then measured at 650 nm using Molecular Devices SpectraMax M5 Microplate reader. Data was analyzed and plotted using GraphPad Prism 9.2.0.

[2] = Mouse hepatic microsome stability; assay type: in vitro ADME; settings: mouse hepatic microsomes
Human plasma stability = assay type: in vitro ADME
[3] = tested on: IL-4 induced STAT-6 phosphorylation in Ramos B lymphocytes (type I IL-4 receptor); test: Ramos STAT-6 phosphorylation assay (western blot); assay type: cell-based; settings: for inhibition at 0.5 µM: read-out: percent inhibition of STAT-6 phosphorylation; for inhibition of phosphorylation of STAT-6: 50 nM
Procedure: Ramos cells were purchased from ATCC and maintained in RMPI-1640 with 10% heat-inactivated Fetal Bovine Serum. Cells used for assays were between passages 4 and 8. […] Undiluted cell lysates were run SDS-PAGE and transferred to Immunoblot PVDF membrane using Biorad equipment. Membranes were incubated with 1:1000 primary antibody overnight at 4° C. Membranes were then incubated with 1:50,000 dilution secondary for 1 hour at room temperature. Membranes were then exposed to Femto ECL for 5 minutes and imaged using a Bio-Rad Gel Doc. The brightness/contrast was adjusted in FIJI and the area under the curve of each lane was quantified. The phosphorylated STAT-6 to STAT-6 ratio was calculated and normalized to the amount of total STAT-6. The data was plotted and analyzed using GraphPad Prism 9.2.0.

[4] = tested on: IL-4 induced pSTAT-6 in THP-1 cells; test: THP-1 pSTAT-6 immunofluorescence
Procedure: IL-4 and analogs or vehicle (DMEM with 2% DMSO) were preincubated for 2 hours at 37° C. After the incubation, IL-4 or IL-4/analogs were incubated with THP-1 cells for 30 min at 37° C./5% CO2. Incubated cells were centrifuged for 5 min at 250×g. After aspirating the supernatant, cells were resuspended in 1×PBS and plated into a MatTek dish coated with Cell Tak adhesive for 30 minutes at room temperature. Cells were fixed with 4% Paraformaldehyde for 1 hour at room temperature. Cells were rinsed twice with 1×PBS and then permeabilized with 0.5% Triton-X for 1 hour at room temperature. Cells were rinsed again with 1×PBS, and blocked for an hour in superblock with 0.05% Tween-20, rinsed twice, and then incubated with anti-pSTAT-6 1:100 diluted in superblock 0.05% Tween-20 overnight at 4° C. (parafilmed to avoid evaporation). Cells were rinsed thrice with 1×PBS and then incubated with Mouse anti-rabbit IgG(H+L) Secondary Antibody-Alexa Fluor 647 for 1 hour at room temperature in the dark. […] Cells were rinsed twice with 1×PBS and left in 1 ml of 1×PBS. Confocal Imaging was done using an Olympus FV10i and images were processed using FIJI.

IL-4 [5] = biological target: T1, IL-4; test: HEK-Blue IL-4/IL-13 reporter assay, IL-4 inhibition; assay type: cell-based; settings: control: cells with 10 μM compound only, no IL-4
soluble IL-4 = biological target: T2, soluble IL-4 (Homo sapiens, UniProt P05112); test: Differential scanning fluorimetry (thermal shift), IL-4; assay type: binding; settings: soluble IL-4, 2 μM compound, 0.1% DMSO; read-out: Tm shift
T2 sequence (P05112 25-153): T1 sequence (P05112 25-153)
Procedure: DSF was performed using BioRad CFX384.

IL-13 [6] = biological target: T3, IL-13 (Homo sapiens, UniProt P35225); test: HEK-Blue IL-4/IL-13 reporter assay, IL-13 inhibition; assay type: cell-based
Procedure: Prior to screening. […] The solution was added to preincubated cells in a 96-well culture plate. The supernatant was then incubated with Quanti-Blue dye for 3 hours and absorbance was measured at 650 nm. Data was analyzed and plotted using GraphPad Prism 9.2.0.

[7] = tested on: IL-4 induced STAT-6 phosphorylation in THP-1 monocytes (type II IL-4 receptor); test: THP-1 STAT-6 phosphorylation assay (western blot); assay type: cell-based
Procedure: THP-1 cells were received as a gift from the laboratory of Dr. Mark Grinstaff and maintained in RMPI-1640 with […] heat-inactivated Fetal Bovine Serum and 50 μM beta-mercaptoethanol. Cells used for assays were between passages 6 and 10, 10 ng/mL IL-4 was preincubated with experimental sample (vehicle or analogs) for 30 minutes at 37° C. 1 mL of each solution was then added to a pellet of 2 E6 THP-1 cells and pipetted up and down. THP-1 cells were incubated for 30 minutes in the incubator at 37 C/5% CO2. Cells were then spun down and lysed with 200 μL ice-cold RIPA buffer complete with phosphatase and protease inhibitors. Cell lysates were incubated on ice for 30 minutes, spun down and the supernatants were stored at −20° C. until western blot analysis. Undiluted cell lysates were run on SDS-PAGE and transferred to Immunoblot PVDF membrane using Biorad equipment. Membranes were incubated with 1:1000 primary antibody overnight at 4° C. Membranes were then incubated with 1:50,000 dilution secondary for 1 hour at room temperature. Membranes were then exposed to Femto ECL for 5 minutes and imaged using a Bio-Rad Gel Doc. The brightness/contrast was adjusted in FIJI and the area under the curve of each lane was quantified. The phosphorylated STAT-6 to STAT-6 ratio was calculated and normalized to the amount of total STAT-6. The data was plotted and analyzed using GraphPad Prism 9.2.0′.

[8] = PAMPA membrane permeability; assay type: in vitro ADME; settings: 18 hours incubation
Procedure: PVDF membranes purchased from Bioassay Systems PAMPA-096 were coated with 5 μL of 4% Phosphatidylcholine (Lecithin, MP Biomedicals 0210214780) in dodecane. […] Permeability was calculated by Pv=C×ln (1−ODA/ODE) cm/s, where ODA is the absorbance of acceptor solution minus blank, and ODE the absorbance of the equilibrium standard minus blank, and C=7.72×10^−6 using an 18-hour incubation time.

B16-F10 cells = test: In vitro cytotoxicity (CellTiter-Glo); assay type: cell-based; settings: up to 25 μM
Procedure: CellTiter-Glo 2.0 purchased from Promega G9242) was used to measure cell viability with the Victor-3 plate reader (PerkinElmer) after 24 hours in concentrations of compound up to 25 μM. Vehicle was used as a negative control for both cytotoxicity and growth inhibition, methanol was used as a positive control for cytotoxicity, and 1% FBS was used as a positive control for growth inhibition.

Mouse plasma stability = assay type: in vitro ADME
[9] = biological target: IL-4 induced STAT-6 phosphorylation in THP-1 monocytes (type II IL-4 receptor); settings: previously reported, read-out: EC50 of inhibition of STAT-6 phosphorylation; cited from earlier work
[10] = tested on: murine IL-4 induced STAT-6 phosphorylation in RAW 264.7 macrophages; test: RAW 264.7 STAT-6 phosphorylation assay (western blot); assay type: cell-based
Procedure: RAW 264.7 cells were purchased from ATCC and maintained in DMEM with 10% heat-inactivated Fetal Bovine Serum. Cells used for assays were between passages 3 and 5. […] The undiluted cell lysates were run SDS-PAGE followed by transfer to Immunoblot PVDF membrane using Biorad equipment. Membranes were incubated with 1:1000 primary antibody overnight at 4° C. Membranes were then incubated with 1:50,000 dilution secondary for 1 hour at room temperature. Membranes were then exposed to Femto ECL for 5 minutes and imaged using a Bio-Rad Gel Doc. The brightness/contrast was adjusted in FIJI and the area under the curve of each lane was quantified. The phosphorylated STAT-6 to STAT-6 ratio was calculated and normalized to the amount of total STAT-6. The data was plotted and analyzed using GraphPad Prism 8.

IL-13 [11] = biological target: T3, IL-13; settings: previously reported; cited from earlier work
[12] = HEK Blue IL-4/IL-13 reporter assay, read-out: EC50

T3 sequence (P35225 25-146): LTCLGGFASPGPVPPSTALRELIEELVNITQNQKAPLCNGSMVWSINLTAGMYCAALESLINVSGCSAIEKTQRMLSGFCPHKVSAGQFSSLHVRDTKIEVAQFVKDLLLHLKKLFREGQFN

inhibition at 10 µM (IL-4 [1]; read-out: % Inhibition): 86.1%
Mouse hepatic microsome stability (% remaining after 1 hour) [2]: 68.3%
SMILES: N#Cc1c(-c2ccc(O)c(O)c2)cc(C23CC(C2)C3)nc1N [1A/54, 6-(bicyclo[1.1.1]pentan-1-yl)-4-(3,4-dihydroxyphenyl)-2-imino-2,3-dihydropyridine-3-carbonitrile]

SMILES: N#Cc1c(-c2ccc(O)c(O)c2)cc(-c2ccc(N)cc2)[nH]c1=N [Compound 14, 6-(4-aminophenyl)-4-(3,4-dihydroxyphenyl)-2-imino-1,2-dihydropyridine-3-carbonitrile]
% Inhibition (IL-4 [1]): 94.5% and 94.5 ± 1.58% and 94.5 ± 1.68%
inhibition at 10 µM (IL-4 [1]): > 80%
EC50 (IL-4 [1]; [12]): 0.67 ± 0.28 µM
EC50 (IL-4 [1]; values in text, read-out: potency (EC50 of inhibition)): 0.627 µM
Hill coefficient (IL-4 [1]): 1.69±0.25
Human plasma stability (% remaining after 3 hours) (Human plasma stability; listed as Analog 14): >99%/>99%
inhibition at 0.5 µM ([3]; Homo sapiens, Ramos): 31.4%
inhibition of phosphorylation of STAT-6 ([3]; Ramos B lymphocytes): minimum inhibition
STAT-6 phosphorylation by immunofluorescence ([4]; 500 nM): significant reduction in STAT-6 phosphorylation
STAT-6 phosphorylation by immunofluorescence ([4]; 5 μM): almost no visible STAT-6 phosphorylation
Abs650 (IL-4 [5]): 0.05948 ± 0.000642
ΔTm at 2 µM (soluble IL-4): 1.66 °C
fold less potent for IL-13 than for IL-4 (IL-13 [6]; IL-13 EC50 versus IL-4 EC50): 100 fold
EC50 (IL-13 [6]; soluble IL-13 mediated signaling, HEK Blue IL-4/IL-13 reporter assay): 18.2 µM
EC50 ([7]; Homo sapiens, THP-1 monocytes, western blot, normalized to STAT-6, read-out: EC50 of inhibition of STAT-6 phosphorylation): 0.686 µM
STAT-6 levels ([7]; total STAT-6, THP-1 cells): not impacted
Papp at 18 h, 100 μM [8]: 6.2 ×10⁻⁶ cm/s
Cytotoxicity in B16-F10 cells (24 hours) (B16-F10 cells): no toxicity
Cytotoxicity in B16-F10 cells (24 hours) (B16-F10 cells; listed as Analog 14): n.s. < 25 μM
Mouse plasma stability (% remaining after 3 hours) (Mouse plasma stability): > 99%
Mouse plasma stability (% remaining after 3 hours) (Mouse plasma stability; listed as Analog 14): >99%/>99%
Mouse hepatic microsome stability (% remaining after 1 hour) [2]: 75.4%
Mouse hepatic microsome stability (% remaining after 1 hour) ([2]; listed as Analog 14): 75.4%

% Inhibition (IL-4 [1]): 97.6 ± 1.57%
inhibition at 10 µM (IL-4 [1]; read-out: % Inhibition): > 97%
EC50 (IL-4 [1]; [12]): 1.32 ± 0.38 µM
Hill coefficient (IL-4 [1]): 1.24±0.08
Human plasma stability (% remaining after 3 hours) (Human plasma stability): > 99%
EC50 ([3]; Homo sapiens, Ramos B lymphocytes, western blot, read-out: EC50 of inhibition of STAT-6 phosphorylation): 1.03 µM
EC50 ([10]; Mus musculus, RAW264.7, RAW 264.7 macrophages, murine IL-4, read-out: EC50 of reduction in pSTAT-6 levels): 1.28 µM
Papp at 18 h, 100 μM [8]: 16.4 ×10⁻⁶ cm/s
Mouse plasma stability (% remaining after 3 hours) (Mouse plasma stability): 97%
Mouse hepatic microsome stability (% remaining after 1 hour) [2]: 86.5%
SMILES: N#Cc1c(-c2ccc(O)c(O)c2)cc(-c2ccc(F)cc2)nc1N [Nico-52, 4-(3,4-dihydroxyphenyl)-6-(4fluorophenyl)-2-imino-1,2-dihydropyridine-3-carbonitrile, reference compound]
EC50 [9]: 3.1 µM
inhibition at 0.5 µM ([3]; Homo sapiens, Ramos B lymphocytes, 500 nM): 14.6%
inhibition of phosphorylation of STAT-6 ([3]; Ramos B lymphocytes): minimum inhibition
STAT-6 levels ([10]; total STAT-6, RAW 264.7): not affected
Cytotoxicity in B16-F10 cells (24 hours) (B16-F10 cells): no toxicity; also recorded: n.s. < 25 μM
fold higher inhibition for IL-4 activity than IL-13 activity (IL-13 [11]): 10 fold

inhibition at 10 µM (IL-4 [1]; read-out: % Inhibition): 68.7 ± 9.84%
SMILES: N#CC1C(=O)N=C(c2ccc(-c3ccccc3)cc2)C=C1c1ccc(O)c(O)c1 (stereo not shown) [Compound 31, 6-([1,1′-biphenyl]-4-yl)-4-(3,4-dihydroxyphenyl)-2-oxo-2,3-dihydropyridine-3-carbonitrile]

SMILES: COc1ccc(C2=NC(=N)C(C#N)C(c3ccc(O)c(O)c3)=C2)cc1 (stereo not shown) [Compound 6, 4-(3,4-dihydroxyphenyl)-2-imino-6-(4-methoxyphenyl)-2,3-dihydropyridine-3-carbonitrile]
% Inhibition (IL-4 [1]): 51.7 ± 5.05%
EC50 (IL-4 [1]; [12]): 3.02 ± 0.61 µM

SMILES: N#Cc1c(-c2ccc(O)c(Br)c2)cc(-c2ccc(F)cc2)[nH]c1=N [Compound 52, 4-(3-bromo-4-hydroxyphenyl)-6(4-fluorophenyl)-2-imino-1,2-dihydropyridine-3-carbonitrile]
inhibition at 10 µM (IL-4 [1]): 58.8 ± 16.5%

SMILES: N#Cc1c(-c2ccc(O)cc2)cc(-c2ccc(F)cc2)[nH]c1=O [Compound 41, 6(4-fluorophenyl)-4-(4-hydroxyphenyl)-2-oxo-1,2-dihydropyridine-3-carbonitrile]
inhibition at 10 µM (IL-4 [1]): 60.7 ± 10.3%
